Source: patent US20090202659A1, “Modulation of Peripheral Clocks in Adipose Tissue” (priority 2005, published 2009)

Experiments:
[1] = system: undifferentiated human ASCs; experiment: Circadian gene expression induction in undifferentiated human ASCs (qRT-PCR); type: cell-based; details: for Rev-erbα and Rev-erbβ expression zenith, time: three donors
Description: Human Adipose-Derived Stem Cell (ASCs) Isolation and Expansion. All protocols were reviewed and approved by the Pennington Biomedical Research Center Institutional Research Board (IRB; Baton Rouge, La.) prior to the study. Liposuction aspirates from subcutaneous adipose tissue sites were obtained from female subjects undergoing elective procedures in local plastic surgical offices. Tissues were washed 3-4 times with phosphate-buffered saline (PBS) and suspended in an equal volume of PBS supplemented with 1% bovine serum and 0.1% collagenase type I (Worthington Biochemical Corporation, Lakewood, N.J.) prewarmed to 37° C. The tissue was then placed in a shaking water bath at 37° C. with continuous agitation for 60 min and centrifuged for 5 min at 300-500×g at room temperature. The supernatant, containing mature adipocytes, was aspirated. The pellet was identified as the stromal vascular fraction (SVF). Portions of the SVF were resuspended in cryopreservation medium (10% dimethylsulfoxide, 10% DMEM/F 12 Ham's, 80% fetal bovine serum), frozen at −80° C. in an ethanol-jacketed, closed container, and subsequently stored in liquid nitrogen. Portions of the SVF were used in colony forming unit assays (see below). The remaining cells of the SVF were suspended and plated immediately in T225 flasks in stromal medium (DMEM/F 12 Ham's, 10% fetal bovine serum (Hyclone, Logan, Utah), 100 U penicillin/100 μg streptomycin/0.25 μg Fungizone) at a density of 0.156 ml of tissue digest/sq cm of surface area for expansion and culture. This initial passage of the primary cell culture was referred to as “Passage 0” (P0). […] The cells were passaged by trypsin (0.05%) digestion and plated at a density of 5,000 cells/cm^2 (“Passage 1”). Cell viability and numbers at the time of passage were determined by trypan blue exclusion and hemacytometer cell counts. Cells were passaged repeatedly after achieving a density of 75-90% (approximately 6 days in culture) until Passage 2.
Circadian Induction: The medium was removed from confluent cultures of undifferentiated or adipocyte-differentiated human ASCs in 6 well plates and replaced with DMEM/Ham's F12 medium and 100 U penicillin/100 μg streptomycin/0.25 μg Fungizone alone or supplemented with one of the following: 30% FBS, 1 μM dexamethasone, or 5 μM rosiglitazone. The ASCs were exposed to the inductive agents for 2 hr. A single plate under each condition was harvested for total RNA after 1 hr of induction. After 2 hr, the medium in the remaining plates was replaced with serum free DMEM/Ham's F12 medium and 100 U penicillin/100 μg streptomycin/0.25 μg Fungizone alone.
Quantitative Real-time RT-PCR (qRT-PCR) for Human ASCs: Total RNA was purified from the ASCs as described above for mouse tissues using TriReagent (Molecular Research Center) according to the manufacturer's specifications. Approximately 2 μg of total RNA was reverse transcribed using Moloney Murine Leukemia Virus Reverse Transcriptase (MMLV-RT; Promega), with Oligo dT at 42° C. for 1 hr in a 20 μL reaction. Primers for genes of interest (listed in Table 2) were identified using Primer Express software (Applied Biosystems). All primers were based on the sequence of the corresponding human mRNA and were designed to amplify across at least one exon/intron junction. qRT-PCR was performed on diluted cDNA samples with SYBR® Green PCR Master Mix (Applied Biosystems) using the 7900 Real Time PCR system (Applied Biosystems) under universal cycling conditions (95° C. for 10 min; 40 cycles of 95° C. for 15 sec; then 60° C. for 1 min). All results were normalized relative to a Cyclophilin B expression control.
Periodicity Analysis: Periodicity of the circadian data obtained by qRT-PCR was tested with Time Series Analysis-Single Cosinor v. 6.0 software (Expert Soft Technologie). […] Model was also tested for validity at the 0.950 probability level (ANOVA).

[2] = system: adipocyte-differentiated human ASCs; experiment: Circadian gene expression induction in adipocyte-differentiated human ASCs (qRT-PCR); type: cell-based
Description: Human Adipose-Derived Stem Cell (ASCs) Isolation and Expansion. All protocols were reviewed and approved by the Pennington Biomedical Research Center Institutional Research Board (IRB; Baton Rouge, La.) prior to the study. Liposuction aspirates from subcutaneous adipose tissue sites were obtained from female subjects undergoing elective procedures in local plastic surgical offices. Tissues were washed 3-4 times with phosphate-buffered saline (PBS) and suspended in an equal volume of PBS supplemented with 1% bovine serum and 0.1% collagenase type I (Worthington Biochemical Corporation, Lakewood, N.J.) prewarmed to 37° C. The tissue was then placed in a shaking water bath at 37° C. with continuous agitation for 60 min and centrifuged for 5 min at 300-500×g at room temperature. The supernatant, containing mature adipocytes, was aspirated. The pellet was identified as the stromal vascular fraction (SVF). Portions of the SVF were resuspended in cryopreservation medium (10% dimethylsulfoxide, 10% DMEM/F 12 Ham's, 80% fetal bovine serum), frozen at −80° C. in an ethanol-jacketed, closed container, and subsequently stored in liquid nitrogen. Portions of the SVF were used in colony forming unit assays (see below). The remaining cells of the SVF were suspended and plated immediately in T225 flasks in stromal medium (DMEM/F 12 Ham's, 10% fetal bovine serum (Hyclone, Logan, Utah), 100 U penicillin/100 μg streptomycin/0.25 μg Fungizone) at a density of 0.156 ml of tissue digest/sq cm of surface area for expansion and culture. This initial passage of the primary cell culture was referred to as “Passage 0” (P0). Following the first 48 hr of incubation at 37° C. at 5% CO2, the cultures were washed with PBS and maintained in Stromal Media until they achieved 75-90% confluence (approximately 6 days in culture). The cells were passaged by trypsin (0.05%) digestion and plated at a density of 5,000 cells/cm^2 (“Passage 1”). Cell viability and numbers at the time of passage were determined by trypan blue exclusion and hemacytometer cell counts. Cells were passaged repeatedly after achieving a density of 75-90% (approximately 6 days in culture) until Passage 2. […]
Quantitative Real-time RT-PCR (qRT-PCR) for Human ASCs: Total RNA was purified from the ASCs as described above for mouse tissues using TriReagent (Molecular Research Center) according to the manufacturer's specifications. […]

[3] = system: adipocyte-differentiated human adipose stem cells; experiment: Effect of GSK3B inhibitor on dexamethasone-induced circadian gene expression profiles of human ASCs (qRT-PCR); type: cell-based; details: 30 μM in serum-free media after 2 hr 1 μM dexamethasone, FIG. 12
Description: Treatment of human adipose derived stem cells with dexamethasone was shown above to induce a circadian rhythm in vitro, and studies were conducted to see if this induction would be blocked by the addition of a glycogen synthase kinase 3 beta inhibitor. Confluent cultures of human ASCs were induced by exposure to 1 micromolar dexamethasone for a period of 2 hr. The medium was changed to either serum-free media (SF), or serum-free media with 30 μM SB415286 (SB415, an inhibitor of glycogen synthase kinase 3 beta). Individual cultures were harvested for total RNA at the indicated times and used for qRT-PCR analysis of gene expression of Bmal1, Per3, and Rev-erbα, and normalized relative to the corresponding Cyclophilin B levels.

bipolar patients = details: A. Fagiolini et al., 2002, 2003; cited from earlier work
[4] = undifferentiated ASCs, 2 hr exposure
[5] = adipocyte-differentiated vs undifferentiated ASCs
[6] = 1 μM for 2 hr, then serum free medium, four donors, FIG. 8B

**Q.** With CN(CCOc1ccc(CC2SC(=O)NC2=O)cc1)c1ccccn1 (stereo not shown) [thiazolidinedione, rosiglitazone] as the compound, how does the “Per 3 immediate early response” value [1, 4] read?
**A.** Neither 30% serum nor thiazolidinedione initiated an immediate early response

**Q.** What about the “Rev-erbα and Rev-erbβ expression zenith, time” value [1, 4] of the same compound?
**A.** 24 h

**Q.** And the “Per 3 peak expression earlier in adipocyte-differentiated than in undifferentiated ASCs” value [2, 5]?
**A.** approximately 4 hr

**Q.** What about the “Rev-erbα and Rev-erbβ phase-advance relative to the undifferentiated ASCs” value [2, 5] of the same compound?
**A.** ~8 h

**Q.** For O=C1NC(=O)C(c2ccccc2[N+](=O)[O-])=C1Nc1ccc(O)c(Cl)c1 [SB415286], which “effect on circadian cycle of gene expression” value [3] is on record?
**A.** shifted and lengthened

**Q.** What about the “mRNA induction profile delayed and shifted (Bmal1, Per3, Rev-erb alpha)” value ([3]; vs serum-free media alone) of the same compound?
**A.** 6 to 9 h

**Q.** For C[C@@H]1C[C@H]2[C@@H]3CCC4=CC(=O)C=C[C@]4(C)[C@@]3(F)[C@@H](O)C[C@]2(C)[C@@]1(O)C(=O)CO [dexamethasone], which “Bmal1 peak levels, first peak, time following induction” value [1, 6] is on record?
**A.** 16 to 20 h

**Q.** And the “Bmal1 peak levels, second peak, time following induction” value [1, 6]?
**A.** 40 h

**Q.** What about the “Per1, Per3, and Cry2 expression peaks, time after induction” value [1, 6] of the same compound?
**A.** 28 to 32 h

**Q.** What about the “immediate-early induction of Per1, Per3, and Cry2 mRNAs, time after induction” value [1, 6] of the same compound?
**A.** 1 to 4 h

**Q.** And the “phase shift of Bmal1 relative to Per1, Per3, and Cry2” value ([1]; 1 μM for 2 hr, four donors)?
**A.** 8 to 12 h

**Q.** What about the “Rev-erbα peak levels, time post induction” value ([1]; 1 μM for 2 hr, four donors, FIG. 8B) of the same compound?
**A.** 24 h

**Q.** What about the “Rev-erbα and Rev-erbβ expression zenith, time” value [1, 4] of the same compound?
**A.** 24 h

**Q.** And the “Per 3 subsequent peak, time” value ([2]; adipocyte-differentiated ASCs, 2 hr exposure, three donors)?
**A.** 20 to 24 h

**Q.** What about the “Rev-erbα and Rev-erbβ phase-advance relative to the undifferentiated ASCs” value [2, 5] of the same compound?
**A.** ~8 h

**Q.** For [Cl-].[Li+] [lithium chloride], which “weight change under pharmacotherapy” value (bipolar patients) is on record?
**A.** gain weight rapidly and become obese
